From patent publication US20230340011A1 (Asteroid Therapeutics, priority 2022, published 2023)

Experiments:
LXRβ = LXRβ (Homo sapiens (Human), UniProt P55055); assay: In vitro assay LXRβ: PathHunter NHR CHO cells, LXRβ / Steroid Receptor Co-activator Peptide enzyme fragment complementation; type: cell-based; conditions: PathHunter NHR CHO cells, full-length human LXRβ and SRCP, chemiluminescent signal; read-out: LXRβ PPI
How it was run: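 Co-activator recruitment measured by chemiluminescence after signal generation. The CHO line carries full-length human LXRβ tagged with ProLink and an SRCP–enzyme acceptor fusion in the nucleus; cells sat overnight at 37° C before testing, in charcoal-dextran filtered serum medium with 1% final vehicle.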

SREBP-2 = SREBP-2 (Homo sapiens (Human), UniProt Q12772); assay: In vitro assay SREBP-2: PathHunter U2OS SREBP-2 Nuclear Translocation Cell Line, U18666A-stimulated; type: cell-based; conditions: PathHunter U2OS SREBP-2 nuclear translocation cells, U18666A 10 μM, overnight (16 hours)

Sequence of LXRβ (P55055 whole entry, the tested form may be a part): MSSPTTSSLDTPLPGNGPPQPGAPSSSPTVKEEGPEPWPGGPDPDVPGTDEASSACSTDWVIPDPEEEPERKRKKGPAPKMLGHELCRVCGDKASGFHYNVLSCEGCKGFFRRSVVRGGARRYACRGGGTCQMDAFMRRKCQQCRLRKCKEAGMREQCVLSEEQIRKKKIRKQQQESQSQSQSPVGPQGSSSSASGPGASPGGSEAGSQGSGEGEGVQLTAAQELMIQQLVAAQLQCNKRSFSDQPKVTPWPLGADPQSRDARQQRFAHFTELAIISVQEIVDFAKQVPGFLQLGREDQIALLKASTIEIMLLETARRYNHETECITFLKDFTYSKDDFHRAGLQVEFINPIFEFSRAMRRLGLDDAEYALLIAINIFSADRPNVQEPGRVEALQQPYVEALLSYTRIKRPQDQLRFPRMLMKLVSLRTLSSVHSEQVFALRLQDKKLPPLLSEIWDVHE

SMILES	EC50 (LXRβ)	IC50 (SREBP-2)
COc1cccnc1C1CCN(C(=O)CC[C@@H](C)[C@H]2CC[C@H]3[C@@H]4CC=C5C[C@@H](O)CC[C@]5(C)[C@H]4CC[C@]23C)CC1 [Example 622, (R)-4-((3S,8S,9S,10R,13R,14S,17R)-3-hydroxy-10,13-dimethyl-2,3,4,7,8,9,10,11,12,13,14,15,16,17-tetradecahydro-1H-cyclopenta[a]phenanthren-17-yl)-1-(4-(3-methoxypyridin-2-yl)piperidin-1-yl)pentan-1-one]	> 10 µM	< 0.25 µM
COc1ccccc1C1CCN(C(=O)CC[C@@H](C)[C@H]2CC[C@H]3[C@@H]4CC=C5C[C@@H](O)CC[C@]5(C)[C@H]4CC[C@]23C)CC1 [Example 623, (R)-4-((3S,8S,9S,10R,13R,14S,17R)-3-hydroxy-10,13-dimethyl-2,3,4,7,8,9,10,11,12,13,14,15,16,17-tetradecahydro-1H-cyclopenta[a]phenanthren-17-yl)-1-(4-(2-methoxyphenyl)piperidin-1-yl)pentan-1-one]	1 to 10 µM	< 0.25 µM
COc1ccccc1N1CCN(C(=O)CC[C@@H](C)[C@H]2CC[C@H]3[C@@H]4CC=C5C[C@@H](O)CC[C@]5(C)[C@H]4CC[C@]23C)CC1 [Example 624, (R)-4-((3S,8S,9S,10R,13R,14S,17R)-3-hydroxy-10,13-dimethyl-2,3,4,7,8,9,10,11,12,13,14,15,16,17-tetradecahydro-1H-cyclopenta[a]phenanthren-17-yl)-1-(4-(2-methoxyphenyl)piperazin-1-yl)pentan-1-one]	> 10 µM	< 0.25 µM
COc1cccnc1NC(=O)CC[C@@H](C)[C@H]1CC[C@H]2[C@@H]3CC=C4C[C@@H](O)CC[C@]4(C)[C@H]3CC[C@]12C [Example 625, (R)-4-((3S,8S,9S,10R,13R,14S,17R)-3-hydroxy-10,13-dimethyl-2,3,4,7,8,9,10,11,12,13,14,15,16,17-tetradecahydro-1H-cyclopenta[a]phenanthren-17-yl)-N-(3-methoxypyridin-2-yl)pentanamide]	> 10 µM	< 0.25 µM
C[C@H](CCC(=O)N1CCOc2cccnc21)[C@H]1CC[C@H]2[C@@H]3CC=C4C[C@@H](O)CC[C@]4(C)[C@H]3CC[C@]12C [Example 626, (4R)-4-[(1R,3aS,3bS,7S,9aR,9bS,11aR)-7-hydroxy-9a,11a-dimethyl-1H,2H,3H,3aH,3bH,4H,6H,7H,8H,9H,9aH,9bH,10H,11H,11aH-cyclopenta[a]phenanthren-1-yl]-1-{2H,3H,4H-pyrido[3,2-b][1,4]oxazin-4-yl}pentan-1-one]	1 to 10 µM	< 0.25 µM
COc1ccc2ccnc(N3CCN(C(=O)CC[C@@H](C)[C@H]4CC[C@H]5[C@@H]6CC=C7C[C@@H](O)CC[C@]7(C)[C@H]6CC[C@]45C)CC3)c2c1 [Example 627, (R)-4-((3S,8S,9S,10R,13R,14S,17R)-3-hydroxy-10,13-dimethyl-2,3,4,7,8,9,10,11,12,13,14,15,16,17-tetradecahydro-1H-cyclopenta[a]phenanthren-17-yl)-1-(4-(7-methoxyisoquinolin-1-yl)piperazin-1-yl)pentan-1-one]	> 10 µM	< 0.25 µM
C[C@H](CCC(=O)N1CCN(c2nccc3ccncc23)CC1)[C@H]1CC[C@H]2[C@@H]3CC=C4C[C@@H](O)CC[C@]4(C)[C@H]3CC[C@]12C [Example 628, (R)-1-(4-(2,7-naphthyridin-1-yl)piperazin-1-yl)-4-((3S,8S,9S,10R,13R,14S,17R)-3-hydroxy-10,13-dimethyl-2,3,4,7,8,9,10,11,12,13,14,15,16,17-tetradecahydro-1H-cyclopenta[a]phenanthren-17-yl)pentan-1-one]	> 10 µM	< 0.25 µM
COc1nnccc1N1CCN(C(=O)CC[C@@H](C)[C@H]2CC[C@H]3[C@@H]4CC=C5C[C@@H](O)CC[C@]5(C)[C@H]4CC[C@]23C)CC1 [Example 629, (R)-4-((3S,8S,9S,10R,13R,14S,17R)-3-hydroxy-10,13-dimethyl-2,3,4,7,8,9,10,11,12,13,14,15,16,17-tetradecahydro-1H-cyclopenta[a]phenanthren-17-yl)-1-(4-(3-methoxypyridazin-4-yl)piperazin-1-yl)pentan-1-one]	> 10 µM	< 0.25 µM
C[C@H](CCC(=O)N1CCN(c2ncncc2O)CC1)[C@H]1CC[C@H]2[C@@H]3CC=C4C[C@@H](O)CC[C@]4(C)[C@H]3CC[C@]12C [Example 630, (R)-4-((3S,8S,9S,10R,13R,14S,17R)-3-hydroxy-10,13-dimethyl-2,3,4,7,8,9,10,11,12,13,14,15,16,17-tetradecahydro-1H-cyclopenta[a]phenanthren-17-yl)-1-(4-(5-hydroxypyrimidin-4-yl)piperazin-1-yl)pentan-1-one]	> 10 µM	< 0.25 µM
C[C@H](CCC(=O)N1CCN(c2cc(O)ncn2)CC1)[C@H]1CC[C@H]2[C@@H]3CC=C4C[C@@H](O)CC[C@]4(C)[C@H]3CC[C@]12C [Example 631, (4R)-4-[(1R,3aS,3bS,7S,9aR,9bS,11aR)-7-hydroxy-9a,11a-dimethyl-1H,2H,3H,3aH,3bH,4H,6H,7H,8H,9H,9aH,9bH,10H,11H,11aH-cyclopenta[a]phenanthren-1-yl]-1-[4-(6-hydroxypyrimidin-4-yl)piperazin-1-yl]pentan-1-one]	> 10 µM	< 0.25 µM
C[C@H](CCC(=O)N1CCN(c2ncncc2N)CC1)[C@H]1CC[C@H]2[C@@H]3CC=C4C[C@@H](O)CC[C@]4(C)[C@H]3CC[C@]12C [Example 632, (R)-1-(4-(5-aminopyrimidin-4-yl)piperazin-1-yl)-4-((3S,8S,9S,10R,13R,14S,17R)-3-hydroxy-10,13-dimethyl-2,3,4,7,8,9,10,11,12,13,14,15,16,17-tetradecahydro-1H-cyclopenta[a]phenanthren-17-yl)pentan-1-one]	> 10 µM	< 0.25 µM
C[C@H](CCC(=O)N1CCN(c2cc(N)ncn2)CC1)[C@H]1CC[C@H]2[C@@H]3CC=C4C[C@@H](O)CC[C@]4(C)[C@H]3CC[C@]12C [Example 633, (R)-1-(4-(6-aminopyrimidin-4-yl)piperazin-1-yl)-4-((3S,8S,9S,10R,13R,14S,17R)-3-hydroxy-10,13-dimethyl-2,3,4,7,8,9,10,11,12,13,14,15,16,17-tetradecahydro-1H-cyclopenta[a]phenanthren-17-yl)pentan-1-one]	> 10 µM	< 0.25 µM
Cc1nnc(N2CCN(C(=O)CC[C@@H](C)[C@H]3CC[C@H]4[C@@H]5CC=C6C[C@@H](O)CC[C@]6(C)[C@H]5CC[C@]34C)C[C@@H]2C)o1 [Example 634, (4R)-4-[(1R,3aS,3bS,7S,9aR,9bS,11aR)-7-hydroxy-9a,11a-dimethyl-1H,2H,3H,3aH,3bH,4H,6H,7H,8H,9H,9aH,9bH,10H,11H,11aH-cyclopenta[a]phenanthren-1-yl]-1-[(3S)-3-methyl-4-(5-methyl-1,3,4-oxadiazol-2-yl)piperazin-1-yl]pentan-1-one]	> 10 µM	< 0.25 µM
Cc1nnc(N2CCN(C(=O)CC[C@@H](C)[C@H]3CC[C@H]4[C@@H]5CC=C6C[C@@H](O)CC[C@]6(C)[C@H]5CC[C@]34C)[C@@H](C)C2)o1 [Example 635, (R)-4-((3S,8S,9S,10R,13R,14S,17R)-3-hydroxy-10,13-dimethyl-2,3,4,7,8,9,10,11,12,13,14,15,16,17-tetradecahydro-1H-cyclopenta[a]phenanthren-17-yl)-1-((S)-2-methyl-4-(5-methyl-1,3,4-oxadiazol-2-yl)piperazin-1-yl)pentan-1-one]	> 10 µM	< 0.25 µM
C[C@H](CCC(=O)N1CCN(C(=O)N(C)CC2CC2)[C@@H](C)C1)[C@H]1CC[C@H]2[C@@H]3CC=C4C[C@@H](O)CC[C@]4(C)[C@H]3CC[C@]12C [Example 636, (S)—N-(cyclopropylmethyl)-4-((R)-4-((3S,8S,9S,10R,13R,14S,17R)-3-hydroxy-10,13-dimethyl-2,3,4,7,8,9,10,11,12,13,14,15,16,17-tetradecahydro-1H-cyclopenta[a]phenanthren-17-yl)pentanoyl)-N,2-dimethylpiperazine-1-carboxamide]	> 10 µM	< 0.25 µM
C[C@H](CCC(=O)N1CCN(C(=O)N(C)CC2CC2)C[C@@H]1C)[C@H]1CC[C@H]2[C@@H]3CC=C4C[C@@H](O)CC[C@]4(C)[C@H]3CC[C@]12C [Example 637, (S)—N-(cyclopropylmethyl)-4-((R)-4-((3S,8S,9S,10R,13R,14S,17R)-3-hydroxy-10,13-dimethyl-2,3,4,7,8,9,10,11,12,13,14,15,16,17-tetradecahydro-1H-cyclopenta[a]phenanthren-17-yl)pentanoyl)-N,3-dimethylpiperazine-1-carboxamide]	> 10 µM	< 0.25 µM
[C-]#[N+]c1cccnc1CC[C@@H](C)[C@H]1CC[C@H]2[C@@H]3CC=C4C[C@@H](O)CC[C@]4(C)[C@H]3CC[C@]12C [Example 638, (3S,8S,9S,10R,13R,14S,17R)-17-((R)-4-(3-isocyanopyridin-2-yl)butan-2-yl)-10,13-dim ethyl-2,3,4,7,8,9,10,11,12,13,14,15,16,17-tetradecahydro-1H-cyclopenta[a]phenanthren-3-ol]	0.25 to 1 µM	< 0.25 µM
C[C@H](CCC(=O)N(C)c1ccncc1)[C@H]1CC[C@H]2[C@@H]3CC=C4C[C@@H](O)CC[C@]4(C)[C@H]3CC[C@]12C [Example 639, (R)-4-((3S,8S,9S,10R,13R,14S,17R)-3-hydroxy-10,13-dimethyl-2,3,4,7,8,9,10,11,12,13,14,15,16,17-tetradecahydro-1H-cyclopenta[a]phenanthren-17-yl)-N-methyl-N-(pyridin-4-yl)pentanamide]	> 10 µM	0.25 to 1 µM
